From US20240384236A1, “3D RECONSTITUTED BONE MARROW NICHE AND USES THEREOF” (The University of Hong Kong, priority 2023, published 2024)
Like-named read-outs stand apart in the source and are kept apart here.

Test system: primary AML cells
Test: Sample drug screening: viability of primary AML cells (PrestoBlue) after 24 h drug exposure in nine culture conditions
Conditions: for sensitivity of AML cells to the drug: co-culture with AML MSC-derived niches; for chemosensitivity of primary AML cells towards the drug: co-culture with healthy 3DON; for IC50: Homo sapiens

Compound | sensitivity of AML cells to the drug | chemosensitivity of primary AML cells towards the drug | IC50 (read-out: IC50 daunorubicin, primary AML cells co-cultured with AML 2DMN) [µM] | IC50 (read-out: IC50 daunorubicin, primary AML cells co-cultured with AML 3DMN) [µM] | IC50 (read-out: IC50 daunorubicin, primary AML cells co-cultured with AML 3DON) [µM] | IC50 (read-out: IC50 daunorubicin, primary AML cells co-cultured with healthy 2DMN) [µM] | IC50 (read-out: IC50 daunorubicin, primary AML cells co-cultured with healthy 3DMN) [µM] | IC50 (read-out: IC50 daunorubicin, primary AML cells in NC1 (AML medium)) [µM] | IC50 (read-out: IC50 daunorubicin, primary AML cells in NC2 (MSC medium)) [µM] | IC50 (read-out: IC50 daunorubicin, primary AML cells in PC (engineered growth factor cocktail medium)) [µM]
COc1cccc2c1C(=O)c1c(O)c3c(c(O)c1C2=O)C[C@@](O)(C(=O)CO)C[C@@H]3O[C@H]1C[C@H](N)[C@H](O)[C@H](C)O1 [doxorubicin] | less sensitive | increase the chemosensitivity |  |  |  |  |  |  |  | 
COc1cccc2c1C(=O)c1c(O)c3c(c(O)c1C2=O)C[C@@](O)(C(C)=O)C[C@@H]3O[C@H]1C[C@H](N)[C@H](O)[C@H](C)O1 [daunorubicin] | less sensitive | increase the chemosensitivity | 74 | 55.9 | 43.4 | 0.571 | 3.31 | 0.0486 | 0.525 | 34.3
